Values quoted from earlier work as cited in patent US10568927B2, “Methods and compositions comprising desmopressin in combination with a beta-3-adrenergic receptor agonist” (Serenity Pharmaceuticals, LLC, priority 2013, dated 2020).

Conditions: human, in vivo

NC(=O)CC[C@@H]1NC(=O)[C@H](Cc2ccccc2)NC(=O)[C@H](Cc2ccc(O)cc2)NC(=O)CCSSC[C@@H](C(=O)N2CCC[C@H]2C(=O)N[C@H](CCCN=C(N)N)C(=O)NCC(N)=O)NC(=O)[C@H](CC(N)=O)NC1=O [desmopressin, 1-desamino-8-D-arginine vasopressin]
half-life (known clearance rate): 1.5 to 2.0 h
